# Laboratory results published in the supplement of paper PMC10307832.
# Experiments:
# Test in all cases: relative viability (nuclei count vs DMSO), 5 days (fraction); higher = more cells survive
# [1] = compound: C1CC(C2=C(C1)C3=C(N2)C=CC(=C3)Cl)C(=O)N [Selisistat] + CC(C)C[C@H](NC(=O)[C@H](Cc1ccccc1)NC(=O)c1cnccn1)B(O)O [Bortezomib] (partner 0.002 µM)
# How it was run: (§1)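 Lung cancer cell lines in 1536-well plates were dosed by pin tool the day after seeding, either with one drug alone or with a fixed anchor-drug dose plus five library-drug doses (not always all listed) in √10 steps. After 5 days, cells were fixed and their nuclei stained in one step (final 0.05% Triton X-100, 1% formaldehyde, 1 ug/ml Hoechst), then counted on 4× images. Relative viability is the nuclei count in treated wells divided by that in vehicle wells. Values are medians of duplicate plates.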
# [2] = compound: C1CC(C2=C(C1)C3=C(N2)C=CC(=C3)Cl)C(=O)N [Selisistat] + CS(=O)(=O)N1CCN(Cc2cc3nc(-c4cccc5[nH]ncc45)nc(N4CCOCC4)c3s2)CC1 [Pictilisib] (partner 1 µM)
# How it was run: as §1
# [3] = compound: C1CC(C2=C(C1)C3=C(N2)C=CC(=C3)Cl)C(=O)N [Selisistat] + O=C(c1cc(Cc2n[nH]c(=O)c3ccccc23)ccc1F)N1CCN(C(=O)C2CC2)CC1 [Olaparib] (partner 8 µM)
# How it was run: as §1
# [4] = compound: c1ccc2c(CCNc3ccc(Nc4ccncc4)cc3)c[nH]c2c1 [Serdemetan] + Cc1nc(Nc2ncc(C(=O)Nc3c(C)cccc3Cl)s2)cc(N2CCN(CCO)CC2)n1 [Dasatinib] (partner 0.075 µM)
# How it was run: as §1
Cell Line,relative viability ([1]; first compound 0.4 µM),relative viability ([1]; first compound 1.265 µM),relative viability ([1]; first compound 4 µM),relative viability ([1]; first compound 12.65 µM),relative viability ([1]; first compound 40 µM),relative viability ([2]; first compound 0.4 µM),relative viability ([2]; first compound 1.265 µM),relative viability ([2]; first compound 4 µM),relative viability ([2]; first compound 12.65 µM),relative viability ([2]; first compound 40 µM),relative viability ([3]; first compound 0.4 µM),relative viability ([3]; first compound 1.265 µM),relative viability ([3]; first compound 4 µM),relative viability ([3]; first compound 12.65 µM),relative viability ([3]; first compound 40 µM),relative viability ([4]; first compound 0.04 µM),relative viability ([4]; first compound 0.1265 µM),relative viability ([4]; first compound 0.4 µM),relative viability ([4]; first compound 1.265 µM),relative viability ([4]; first compound 4 µM)
NCI-H1651,1.02,0.939,0.868,0.874,0.847,0.595,0.596,0.48,0.553,0.516,0.197,0.168,0.215,0.183,0.21,0.296,0.319,0.281,0.237,0.186
NCI-H1666,1.07,0.797,0.612,0.739,0.547,0.421,0.401,0.312,0.423,0.318,0.798,0.763,0.745,0.811,0.631,0.797,0.736,0.829,0.597,0.663
NCI-H1734,0.902,0.879,0.946,1.1,0.869,0.479,0.488,0.404,0.486,0.445,0.667,0.553,0.731,0.583,0.658,0.384,0.371,0.402,0.117,0.131
NCI-H1755,1.04,0.972,0.955,1.01,0.925,0.439,0.414,0.363,0.451,0.443,0.955,0.835,0.941,0.875,0.952,0.414,0.446,0.404,0.24,0.306
NCI-H1792,0.967,1,–,0.71,1.07,0.327,0.281,–,0.251,0.279,0.47,0.403,–,0.479,0.442,0.746,0.773,0.747,0.533,0.493
NCI-H1915,1.03,0.943,0.953,1.02,1,0.913,0.965,0.533,0.892,0.95,0.329,0.26,0.25,0.252,0.304,0.3,0.316,0.314,0.287,0.302
NCI-H1975,0.434,0.339,0.33,0.354,0.388,0.322,0.315,0.236,0.301,0.265,0.765,0.728,0.776,0.653,0.605,0.373,0.418,0.361,–,0.352
NCI-H1993,1.22,1.18,–,1.25,1.23,0.702,0.81,–,0.828,0.854,1.06,1.07,–,1.15,1.03,0.578,0.698,0.517,0.507,0.461
